Laboratory results reported in patent publication US12545685B2 (Daiichi Sankyo Company, Limited, priority 2011, dated 2026).
pIC50: −log10 of the molar value.

Molecular target: T1, Mdm2/p53 binding (GST-Mdm2 / His-p53) (Homo sapiens, UniProt Q00987, L33E)
T1 construct: Mdm2 partial protein having Mdm2 amino acids at positions 25 to 108
Experiment: Mdm2/p53 binding assay (HTRF, His-p53 and GST-Mdm2)
Details: His-p53 (aa 1-132) and GST-Mdm2 (aa 25-108, L33E) 6.25 nM each; 25°C, 1 hour; values given as ranges
Description: A protein dilution containing 6.25 nM each of His-p53 (fusion protein of a p53 partial protein having p53 amino acids at positions 1 to 132, with a histidine protein) and GST-Mdm2 (fusion protein of an Mdm2 partial protein having Mdm2 amino acids at positions 25 to 108 with leucine residue 33 substituted by glutamic acid, with glutathione transferase) proteins was prepared using a protein buffer solution (20 mM HEPES pH 7.4, 150 mM NaCl, 0.1% BSA). This protein dilution was added in an amount of 8 μl/well to a 384-well plate (384-well low volume NBC, Corning Inc., catalog No: 3676).
Next, a test compound was diluted with DMSO to produce a protein buffer solution containing 10% dilution, and this buffer solution was added in an amount of 4 μl/well to the plate.
Subsequently, a solution containing an XL665-labeled anti-His antibody (HTRF monoclonal anti-6HIS antibody labeled with XL665 (catalog No: 61HISXLB), Schering/Cisbio Bioassays) and a europium (Eu)-labeled anti-GST antibody (HTRF monoclonal anti-GST antibody labeled with europium cryptate, Schering/Cisbio Bioassays, catalog No: 61GSTKLB) at concentrations of 2.5 μg/ml and 0.325 μg/ml, respectively, was prepared using an antibody diluting buffer solution (20 mM HEPES pH 7.4, 150 mM NaCl, 0.1% BSA, 0.5 M KF). These dilutions were added in an amount of 8 μl/well (total reaction solution volume: 20 μl/well). Then the plate was incubated at 25° ° C. for 1 hour.
Time-resolved fluorescence at 620 and 665 nm was measured at an excitation wavelength of 320 nm using a plate reader (ARVOsx, PerkinElmer Co., Ltd. or PHERAstar, BMG LABTECH). Ratio (R) was calculated using the measured values (RFU 620 nm and RFU 665 nm) according to the following formula: […]
BI: measured value at 665 nm of reaction solution (only each buffer solution) nonsupplemented with each protein, the compound, and the antibodies
A and D: each measured value at 665 nm and 620 nm of reaction solution supplemented with only Eu-labeled anti-GST antibody solution
The R value calculated from the well supplemented with His-p53, GST-Mdm2, the test compound, and each antibody was defined as R (sample). The R value calculated from the well supplemented with His-p53, GST-Mdm2, and each antibody but without the test compound was defined as R (control). The R value calculated from the well supplemented with GST-Mdm2 the test compound, and each antibody but without His-p53 was defined as R (background). T/C was calculated from the formula shown below. An IC50 value for Mdm2/p53 binding was calculated by sigmoid fitting.

T1 sequence (Q00987 25-108 L33E): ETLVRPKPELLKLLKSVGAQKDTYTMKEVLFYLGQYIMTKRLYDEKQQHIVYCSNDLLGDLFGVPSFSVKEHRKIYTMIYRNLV

`CC1(C)CCC2(CC1)N[C@@H](C(=O)N[C@@H]1CC[C@@H](c3ncon3)OC1)[C@H](c1ccnc(Cl)c1)[C@]21C(=O)Nc2cc(Cl)ccc21` [Example 63, (3′R,4′R,5′R)-6″-chloro-4′-(2-chloropyridin-4-yl)-4,4-dimethyl-N-[(3R,6S)-6-(1,2,4-oxadiazol-3-yl)tetrahydro-2H-pyran-3-yl]-2″-oxo-1″,2″-dihydrodispiro[cyclohexane-1,2′-pyrrolidine-3′,3″-indole]-5′-carboxamide] and `CC1(C)CCC2(CC1)N[C@@H](C(=O)N[C@@H]1CC[C@@H](c3ncon3)OC1)[C@H](c1ccnc(Cl)c1F)[C@]21C(=O)Nc2cc(Cl)ccc21` [Example 64, (3′R, 4′S,5′R)-6″-chloro-4′-(2-chloro-3-fluoropyridin-4-yl)-4,4-dimethyl-N-[(3R,6S)-6-(1,2,4-oxadiazol-3-yl)tetrahydro-2H-pyran-3-yl]-2″-oxo-1″,2″-dihydrodispiro[cyclohexane-1,2′-pyrrolidine-3′,3″-indole]-5′-carboxamide] fall in the same range of pIC50: 7.00 to 7.30 for the first, 7.00 to 7.30 for the second.

First: CC1(C)CCC2(CC1)N[C@@H](C(=O)N[C@@H]1CC[C@@H](c3n[nH]c(=O)o3)OC1)[C@H](c1ccnc(Cl)c1F)[C@]21C(=O)Nc2nc(Cl)ccc21 [Example 65, (3′R, 4′S,5′R)-6″-chloro-4′-(2-chloro-3-fluoropyridin-4-yl)-4,4-dimethyl-2″-oxo-N-[(3R,6S)-6-(5-oxo-4,5-dihydro-1,3,4-oxadiazol-2-yl)tetrahydro-2H-pyran-3-yl]-1″,2″-dihydrodispiro[cyclohexane-1,2′-pyrrolidine-3′,3″-pyrrolo[2,3-b]pyridine]-5′-carboxamide]
Second: CC1(C)CCC2(CC1)N[C@@H](C(=O)N[C@@H]1CC[C@@H](c3ncon3)OC1)[C@H](c1ccnc(Cl)c1F)[C@]21C(=O)Nc2nc(Cl)ccc21 [Example 66, (3′R, 4′S,5′R)-6″-chloro-4′-(2-chloro-3-fluoropyridin-4-yl)-4,4-dimethyl-N-[(3R,6S)-6-(1,2,4-oxadiazol-3-yl)tetrahydro-2H-pyran-3-yl]-2″-oxo-1″,2″-dihydrodispiro[cyclohexane-1,2′-pyrrolidine-3′,3″-pyrrolo[2,3-b]pyridine]-5′-carboxamide]
The pIC50 of the first is higher: 7.30 to 9.00 for the first, 7.00 to 7.30 for the second. The first is the more potent here.

`CO[C@@H]1C[C@@H](NC(=O)[C@@H]2NC3(CCC(C)(C)CC3)[C@@]3(C(=O)Nc4nc(Cl)ccc43)[C@H]2c2cccc(Cl)c2F)CO[C@@H]1CO` [Example 68, (3′R, 4′S,5′R)-6″-chloro-4′-(3-chloro-2-fluorophenyl)-N-[(3R,5R,6R)-6-(hydroxymethyl)-5-methoxytetrahydro-2H-pyran-3-yl]-4,4-dimethyl-2″-oxo-1″,2″-dihydrodispiro[cyclohexane-1,2′-pyrrolidine-3′,3″-pyrrolo[2,3-b]pyridine]-5′-carboxamide] and `CO[C@]1(CO)CC[C@@H](NC(=O)[C@@H]2NC3(CCC(C)(C)CC3)[C@@]3(C(=O)Nc4nc(Cl)ccc43)[C@H]2c2cccc(Cl)c2F)CC1` [Example 81, (3′R, 4′S,5′R)-6″-chloro-4′-(3-chloro-2-fluorophenyl)-N-[trans-4-(hydroxymethyl)-4-methoxycyclohexyl]-4,4-dimethyl-2″-oxo-1″,2″-dihydrodispiro[cyclohexane-1,2′-pyrrolidine-3′,3″-pyrrolo[2,3-b]pyridine]-5′-carboxamide] fall in the same range of pIC50: 7.30 to 9.00 for the first, 7.30 to 9.00 for the second.

First: CC1(C)CCC2(CC1)N[C@@H](C(=O)N[C@@H]1CC[C@@H](C(N)=O)OC1)[C@H](c1ccnc(Cl)c1F)[C@]21C(=O)Nc2nc(Cl)ccc21 [Example 71, (3′R, 4′S, S′R)—N-[(3R,6S)-6-carbamoyltetrahydro-2H-pyran-3-yl]-6″-chloro-4′-(2-chloro-3-fluoropyridin-4-yl)-4,4-dimethyl-2″-oxo-1″,2″-dihydrodispiro[cyclohexane-1,2′-pyrrolidine-3′,3″-pyrrolo[2,3-b]pyridine]-5′-carboxamide]
Second: COC[C@]1(O)CC[C@@H](NC(=O)[C@@H]2NC3(CCC(C)(C)CC3)[C@@]3(C(=O)Nc4nc(Cl)ccc43)[C@H]2c2ccnc(Cl)c2F)CC1 [Example 80, (3′R, 4′S,5′R)-6″-chloro-4′-(2-chloro-3-fluoropyridin-4-yl)-N-[cis-4-hydroxy-4-(methoxymethyl)cyclohexyl]-4,4-dimethyl-2″-oxo-1″,2″-dihydrodispiro[cyclohexane-1,2′-pyrrolidine-3′,3″-pyrrol[2,3-b]pyridine]-5′-carboxamide]
The pIC50 of the first is higher: 7.30 to 9.00 for the first, 7.00 to 7.30 for the second.

First: CC1(C)CCC2(CC1)N[C@@H](C(=O)N[C@H]1CC[C@H](N3CC(O)C3)CC1)[C@H](c1ccnc(Cl)c1F)[C@]21C(=O)Nc2cc(Cl)ccc21 [Example 72, (3′R, 4′S,5′R)-6″-chloro-4′-(2-chloro-3-fluoropyridin-4-yl)-N-[trans-4-(3-hydroxyazetidine-1-yl)cyclohexyl]-4,4-dimethyl-2″-oxo-1″,2″-dihydrodispiro[cyclohexane-1,2′-pyrrolidine-3′,3″-indole]-5′-carboxamide]
Second: CO[C@]1(CO)CC[C@H](NC(=O)[C@@H]2NC3(CCC(C)(C)CC3)[C@@]3(C(=O)Nc4cc(Cl)ccc43)[C@H]2c2cccc(Cl)c2F)CC1 [Example 73, (3′R, 4′S,5′R)-6″-chloro-4′-(3-chloro-2-fluorophenyl)-N-[cis-4-(hydroxymethyl)-4-methoxycyclohexyl]-4,4-dimethyl-2″-oxo-1″,2″-dihydrodispiro[cyclohexane-1,2′-pyrrolidine-3′,3″-indole]-5′-carboxamide]
The pIC50 of the first is higher: 7.30 to 9.00 for the first, 7.00 to 7.30 for the second. The first is the more potent here.

Compared with `CO[C@]1(CO)CC[C@@H](NC(=O)[C@@H]2NC3(CCC(C)(C)CC3)[C@@]3(C(=O)Nc4cc(Cl)ccc43)[C@H]2c2cccc(Cl)c2F)CC1` [Example 74, (3′R, 4′S,5′R)-6″-chloro-4′-(3-chloro-2-fluorophenyl)-N-[trans-4-(hydroxymethyl)-4-methoxycyclohexyl]-4,4-dimethyl-2″-oxo-1″,2″-dihydrodispiro[cyclohexane-1,2′-pyrrolidine-3′,3″-indole]-5′-carboxamide], `CO[C@]1(CO)CC[C@@H](NC(=O)[C@@H]2NC3(CCC(C)(C)CC3)[C@@]3(C(=O)Nc4nc(Cl)ccc43)[C@H]2c2ccnc(Cl)c2F)CC1` [Example 82, (3′R, 4′S,5′R)-6″-chloro-4′-(2-chloro-3-fluoropyridin-4-yl)-N-[trans-4-(hydroxymethyl)-4-methoxycyclohexyl]-4,4-dimethyl-2″-oxo-1″,2′-dihydrodispiro[cyclohexane-1,2′-pyrrolidine-3′,3″-pyrrolo[2,3-b]pyridine]-5′-carboxamide] is higher in pIC50: 7.00 to 7.30 for the first, 7.30 to 9.00 for the second.

Compared with `CC1(C)CC2(C1)N[C@@H](C(=O)N[C@@H]1CC[C@@H](CO)OC1)[C@H](c1cccc(Cl)c1F)[C@]21C(=O)Nc2nc(Cl)ccc21` [Example 79, (3′R, 4′S,5′R)-6″-chloro-4′-(3-chloro-2-fluorophenyl)-N-[(3R,6S)-6-(hydroxymethyl)tetrahydro-2H-pyran-3-yl]-3,3-dimethyl-2″-oxo-1″,2″-dihydrodispiro[cyclobutane-1,2′-pyrrolidine-3′,3″-pyrrolo[2,3-b]pyridine]-5′-carboxamide], `CO[C@]1(CO)CC[C@H](NC(=O)[C@@H]2NC3(CCC(C)(C)CC3)[C@@]3(C(=O)Nc4nc(Cl)ccc43)[C@H]2c2ccnc(Cl)c2F)CC1` [Example 83, (3′R, 4′S,5′R)-6″-chloro-4′-(2-chloro-3-fluoropyridin-4-yl)-N-[cis-4-(hydroxymethyl)-4-methoxycyclohexyl]-4,4-dimethyl-2″-oxo-1″,2″-dihydrodispiro[cyclohexane-1,2′-pyrrolidine-3′,3″-pyrrolo[2,3-b]pyridine]-5′-carboxamide] is higher in pIC50: 7.00 to 7.30 for the first, 7.30 to 9.00 for the second.
